± gives the expanded uncertainty stated by the source.
Experiment: molar heat capacity at constant pressure
Details: 293.15 K; 100 kPa; Liquid; Flow calorimetry

SMILES	molar heat capacity at constant pressure [J/K/mol]
CCCCC(CC)COC(=O)c1ccccc1C(=O)OCC(CC)CCCC (stereo not drawn) [bis(2-ethylhexyl) 1,2-benzenedicarboxylate]	703 ± 7.1
CC(C)CCCC(C)CCCC(C)CCCCC(C)CCCC(C)CCCC(C)C (stereo not drawn) [2,6,10,15,19,23-hexamethyltetracosane]	879 ± 8.9
CCCCC(CC)COC(=O)CCCCCCCCC(=O)OCC(CC)CCCC (stereo not drawn) [bis(2-ethylhexyl) decanedioate]	810.3 ± 8.2

Same assay, conditions: 293.15 K; 10000 kPa; Liquid; Flow calorimetry

SMILES	molar heat capacity at constant pressure [J/K/mol]
CCCCC(CC)COC(=O)c1ccccc1C(=O)OCC(CC)CCCC (stereo not drawn) [bis(2-ethylhexyl) 1,2-benzenedicarboxylate]	701.5 ± 7.1
CC(C)CCCC(C)CCCC(C)CCCCC(C)CCCC(C)CCCC(C)C (stereo not drawn) [2,6,10,15,19,23-hexamethyltetracosane]	873.5 ± 8.8
CCCCC(CC)COC(=O)CCCCCCCCC(=O)OCC(CC)CCCC (stereo not drawn) [bis(2-ethylhexyl) decanedioate]	808.5 ± 8.2

Same assay, conditions: 293.15 K; 20000 kPa; Liquid; Flow calorimetry

SMILES	molar heat capacity at constant pressure [J/K/mol]
CCCCC(CC)COC(=O)c1ccccc1C(=O)OCC(CC)CCCC (stereo not drawn) [bis(2-ethylhexyl) 1,2-benzenedicarboxylate]	699.9 ± 7.1
CC(C)CCCC(C)CCCC(C)CCCCC(C)CCCC(C)CCCC(C)C (stereo not drawn) [2,6,10,15,19,23-hexamethyltetracosane]	868.5 ± 8.8
CCCCC(CC)COC(=O)CCCCCCCCC(=O)OCC(CC)CCCC (stereo not drawn) [bis(2-ethylhexyl) decanedioate]	805.6 ± 8.1

Same assay, conditions: 293.15 K; 30000 kPa; Liquid; Flow calorimetry

SMILES	molar heat capacity at constant pressure [J/K/mol]
CCCCC(CC)COC(=O)c1ccccc1C(=O)OCC(CC)CCCC (stereo not drawn) [bis(2-ethylhexyl) 1,2-benzenedicarboxylate]	699.6 ± 7.1
CC(C)CCCC(C)CCCC(C)CCCCC(C)CCCC(C)CCCC(C)C (stereo not drawn) [2,6,10,15,19,23-hexamethyltetracosane]	865.5 ± 8.7
CCCCC(CC)COC(=O)CCCCCCCCC(=O)OCC(CC)CCCC (stereo not drawn) [bis(2-ethylhexyl) decanedioate]	803 ± 8.1

Same assay, conditions: 313.15 K; 100 kPa; Liquid; Flow calorimetry

SMILES	molar heat capacity at constant pressure [J/K/mol]
CCCCC(CC)COC(=O)c1ccccc1C(=O)OCC(CC)CCCC (stereo not drawn) [bis(2-ethylhexyl) 1,2-benzenedicarboxylate]	726.9 ± 7.3
CC(C)CCCC(C)CCCC(C)CCCCC(C)CCCC(C)CCCC(C)C (stereo not drawn) [2,6,10,15,19,23-hexamethyltetracosane]	904.4 ± 9.1
CCCCC(CC)COC(=O)CCCCCCCCC(=O)OCC(CC)CCCC (stereo not drawn) [bis(2-ethylhexyl) decanedioate]	846.5 ± 8.6

Same assay, conditions: 313.15 K; 10000 kPa; Liquid; Flow calorimetry

SMILES	molar heat capacity at constant pressure [J/K/mol]
CCCCC(CC)COC(=O)c1ccccc1C(=O)OCC(CC)CCCC (stereo not drawn) [bis(2-ethylhexyl) 1,2-benzenedicarboxylate]	724.9 ± 7.3
CC(C)CCCC(C)CCCC(C)CCCCC(C)CCCC(C)CCCC(C)C (stereo not drawn) [2,6,10,15,19,23-hexamethyltetracosane]	898.9 ± 9.1
CCCCC(CC)COC(=O)CCCCCCCCC(=O)OCC(CC)CCCC (stereo not drawn) [bis(2-ethylhexyl) decanedioate]	843.5 ± 8.5

Same assay, conditions: 313.15 K; 20000 kPa; Liquid; Flow calorimetry

SMILES	molar heat capacity at constant pressure [J/K/mol]
CCCCC(CC)COC(=O)c1ccccc1C(=O)OCC(CC)CCCC (stereo not drawn) [bis(2-ethylhexyl) 1,2-benzenedicarboxylate]	723 ± 7.3
CC(C)CCCC(C)CCCC(C)CCCCC(C)CCCC(C)CCCC(C)C (stereo not drawn) [2,6,10,15,19,23-hexamethyltetracosane]	896.4 ± 9.1
CCCCC(CC)COC(=O)CCCCCCCCC(=O)OCC(CC)CCCC (stereo not drawn) [bis(2-ethylhexyl) decanedioate]	840.1 ± 8.5

Same assay, conditions: 313.15 K; 30000 kPa; Liquid; Flow calorimetry

SMILES	molar heat capacity at constant pressure [J/K/mol]
CCCCC(CC)COC(=O)c1ccccc1C(=O)OCC(CC)CCCC (stereo not drawn) [bis(2-ethylhexyl) 1,2-benzenedicarboxylate]	722 ± 7.3
CC(C)CCCC(C)CCCC(C)CCCCC(C)CCCC(C)CCCC(C)C (stereo not drawn) [2,6,10,15,19,23-hexamethyltetracosane]	893.4 ± 9
CCCCC(CC)COC(=O)CCCCCCCCC(=O)OCC(CC)CCCC (stereo not drawn) [bis(2-ethylhexyl) decanedioate]	838.4 ± 8.5

Same assay, conditions: 333.15 K; 100 kPa; Liquid; Flow calorimetry

SMILES	molar heat capacity at constant pressure [J/K/mol]
CCCCC(CC)COC(=O)c1ccccc1C(=O)OCC(CC)CCCC (stereo not drawn) [bis(2-ethylhexyl) 1,2-benzenedicarboxylate]	751.3 ± 7.6
CC(C)CCCC(C)CCCC(C)CCCCC(C)CCCC(C)CCCC(C)C (stereo not drawn) [2,6,10,15,19,23-hexamethyltetracosane]	943.3 ± 9.5
CCCCC(CC)COC(=O)CCCCCCCCC(=O)OCC(CC)CCCC (stereo not drawn) [bis(2-ethylhexyl) decanedioate]	878.1 ± 8.9

Same assay, conditions: 333.15 K; 10000 kPa; Liquid; Flow calorimetry

SMILES	molar heat capacity at constant pressure [J/K/mol]
CCCCC(CC)COC(=O)c1ccccc1C(=O)OCC(CC)CCCC (stereo not drawn) [bis(2-ethylhexyl) 1,2-benzenedicarboxylate]	750 ± 7.6
CC(C)CCCC(C)CCCC(C)CCCCC(C)CCCC(C)CCCC(C)C (stereo not drawn) [2,6,10,15,19,23-hexamethyltetracosane]	940.8 ± 9.5
CCCCC(CC)COC(=O)CCCCCCCCC(=O)OCC(CC)CCCC (stereo not drawn) [bis(2-ethylhexyl) decanedioate]	875.5 ± 8.8

Same assay, conditions: 333.15 K; 20000 kPa; Liquid; Flow calorimetry

SMILES	molar heat capacity at constant pressure [J/K/mol]
CCCCC(CC)COC(=O)c1ccccc1C(=O)OCC(CC)CCCC (stereo not drawn) [bis(2-ethylhexyl) 1,2-benzenedicarboxylate]	747.5 ± 7.6
CC(C)CCCC(C)CCCC(C)CCCCC(C)CCCC(C)CCCC(C)C (stereo not drawn) [2,6,10,15,19,23-hexamethyltetracosane]	936.1 ± 9.5
CCCCC(CC)COC(=O)CCCCCCCCC(=O)OCC(CC)CCCC (stereo not drawn) [bis(2-ethylhexyl) decanedioate]	873.4 ± 8.8

Same assay, conditions: 333.15 K; 30000 kPa; Liquid; Flow calorimetry

SMILES	molar heat capacity at constant pressure [J/K/mol]
CCCCC(CC)COC(=O)c1ccccc1C(=O)OCC(CC)CCCC (stereo not drawn) [bis(2-ethylhexyl) 1,2-benzenedicarboxylate]	746 ± 7.5
CC(C)CCCC(C)CCCC(C)CCCCC(C)CCCC(C)CCCC(C)C (stereo not drawn) [2,6,10,15,19,23-hexamethyltetracosane]	929.3 ± 9.4
CCCCC(CC)COC(=O)CCCCCCCCC(=O)OCC(CC)CCCC (stereo not drawn) [bis(2-ethylhexyl) decanedioate]	871.7 ± 8.8

Same assay, conditions: 353.15 K; 100 kPa; Liquid; Flow calorimetry

SMILES	molar heat capacity at constant pressure [J/K/mol]
CCCCC(CC)COC(=O)c1ccccc1C(=O)OCC(CC)CCCC (stereo not drawn) [bis(2-ethylhexyl) 1,2-benzenedicarboxylate]	774.5 ± 7.8
CC(C)CCCC(C)CCCC(C)CCCCC(C)CCCC(C)CCCC(C)C (stereo not drawn) [2,6,10,15,19,23-hexamethyltetracosane]	978.8 ± 9.9
CCCCC(CC)COC(=O)CCCCCCCCC(=O)OCC(CC)CCCC (stereo not drawn) [bis(2-ethylhexyl) decanedioate]	910.9 ± 9.2

Same assay, conditions: 353.15 K; 10000 kPa; Liquid; Flow calorimetry

SMILES	molar heat capacity at constant pressure [J/K/mol]
CCCCC(CC)COC(=O)c1ccccc1C(=O)OCC(CC)CCCC (stereo not drawn) [bis(2-ethylhexyl) 1,2-benzenedicarboxylate]	770.5 ± 7.8
CC(C)CCCC(C)CCCC(C)CCCCC(C)CCCC(C)CCCC(C)C (stereo not drawn) [2,6,10,15,19,23-hexamethyltetracosane]	973.7 ± 9.8
CCCCC(CC)COC(=O)CCCCCCCCC(=O)OCC(CC)CCCC (stereo not drawn) [bis(2-ethylhexyl) decanedioate]	909.7 ± 9.2

Same assay, conditions: 353.15 K; 20000 kPa; Liquid; Flow calorimetry

SMILES	molar heat capacity at constant pressure [J/K/mol]
CCCCC(CC)COC(=O)c1ccccc1C(=O)OCC(CC)CCCC (stereo not drawn) [bis(2-ethylhexyl) 1,2-benzenedicarboxylate]	767.9 ± 7.8
CC(C)CCCC(C)CCCC(C)CCCCC(C)CCCC(C)CCCC(C)C (stereo not drawn) [2,6,10,15,19,23-hexamethyltetracosane]	963.2 ± 9.7
CCCCC(CC)COC(=O)CCCCCCCCC(=O)OCC(CC)CCCC (stereo not drawn) [bis(2-ethylhexyl) decanedioate]	907.1 ± 9.2

Same assay, conditions: 353.15 K; 30000 kPa; Liquid; Flow calorimetry

SMILES	molar heat capacity at constant pressure [J/K/mol]
CCCCC(CC)COC(=O)c1ccccc1C(=O)OCC(CC)CCCC (stereo not drawn) [bis(2-ethylhexyl) 1,2-benzenedicarboxylate]	763.4 ± 7.7
CC(C)CCCC(C)CCCC(C)CCCCC(C)CCCC(C)CCCC(C)C (stereo not drawn) [2,6,10,15,19,23-hexamethyltetracosane]	959.8 ± 9.7
CCCCC(CC)COC(=O)CCCCCCCCC(=O)OCC(CC)CCCC (stereo not drawn) [bis(2-ethylhexyl) decanedioate]	906.3 ± 9.2

Source: the NIST ThermoML archive (doi:10.1016/j.jct.2012.01.011)
